In brackets after ≈: the same amount, converted by molar mass.
What was measured:
[1] = physchem; conditions: pH 7.4
[2] = physchem
[3] = physchem; remark: listed apart in the source
[4] = physchem; conditions: pH 6.8
[5] = physchem; conditions: pH 1.2
[6] = physchem; remark: listed apart in the source
[7] = physchem; conditions: pH 7.4; remark: listed apart in the source
[8] = physchem; conditions: pH 6.8; remark: listed apart in the source
[9] = physchem; conditions: pH 1.2; remark: listed apart in the source

SMILES	solubility thermodynamic at 4 h ([1]; PBS) [µM]	solubility thermodynamic [2] [µM]	solubility thermodynamic at 4 h ([3]; water) [µM]	solubility thermodynamic at 4 h ([4]; simulated intestinal fluid) [µM]	solubility thermodynamic at 4 h ([5]; simulated gastric fluid) [µM]	other results
CCCCCCCCCCCC1=C(O)C(=O)C=C(O)C1=O [EMBELIN]	1.7 (≈ 0.5 µg/mL)	1.02 (≈ 0.301 µg/mL)	1.7 (≈ 0.5 µg/mL)	1.7 (≈ 0.5 µg/mL)	1.7 (≈ 0.5 µg/mL)	–
OC(Cn1cncn1)(Cn1cncn1)c1ccc(F)cc1F [FLUCONAZOLE]	0.324 (≈ 0.0991 µg/mL)	0.331 (≈ 0.101 µg/mL)	0.324 (≈ 0.0991 µg/mL)	0.324 (≈ 0.0991 µg/mL)	1.62 (≈ 0.497 µg/mL)	solubility thermodynamic at 24 h ([6]; water): 0.537 µM (≈ 0.164 µg/mL); solubility thermodynamic at 24 h ([7]; PBS): 0.468 µM (≈ 0.143 µg/mL); solubility thermodynamic at 24 h ([8]; simulated intestinal fluid): 0.891 µM (≈ 0.273 µg/mL); solubility thermodynamic at 24 h ([9]; simulated gastric fluid): 0.851 µM (≈ 0.261 µg/mL)
CCC(=O)O[C@]1(C(=O)SCF)[C@H](C)C[C@H]2[C@@H]3C[C@H](F)C4=CC(=O)C=C[C@]4(C)[C@@]3(F)[C@@H](O)C[C@@]21C [FLUTICASONE PROPIONATE]	0.2 (≈ 0.0999 µg/mL)	0.102 (≈ 0.0512 µg/mL)	0.2 (≈ 0.0999 µg/mL)	1 (≈ 0.501 µg/mL)	1 (≈ 0.501 µg/mL)	solubility thermodynamic at 24 h ([6]; water): 0.0195 µM (≈ 0.00976 µg/mL); solubility thermodynamic at 24 h ([7]; PBS): 0.01 µM (≈ 0.00501 µg/mL); solubility thermodynamic at 24 h ([8]; simulated intestinal fluid): 0.407 µM (≈ 0.204 µg/mL); solubility thermodynamic at 24 h ([9]; simulated gastric fluid): 0.2 µM (≈ 0.0999 µg/mL)
C=C(C)[C@@H](CC=C(C)C)C[C@@]12C[C@@H](CC=C(C)C)C(C)(C)[C@@](CC=C(C)C)(C(=O)C(C(=O)c3ccc(O)c(O)c3)=C1O)C2=O [GARCINOL]	1.66 (≈ 1 µg/mL)	–	1.66 (≈ 1 µg/mL)	6.61 (≈ 3.98 µg/mL)	0.832 (≈ 0.501 µg/mL)	–
NNC(=O)c1ccncc1 [ISONIAZID]	589 (≈ 80.8 µg/mL)	–	589 (≈ 80.8 µg/mL)	288 (≈ 39.6 µg/mL)	589 (≈ 80.8 µg/mL)	–
COc1c2occc2c(OC)c2c(=O)cc(C)oc12 [KHELLIN]	77.6 (≈ 20.2 µg/mL)	97.7 (≈ 25.4 µg/mL)	77.6 (≈ 20.2 µg/mL)	30.9 (≈ 8.04 µg/mL)	30.9 (≈ 8.04 µg/mL)	solubility thermodynamic at 24 h ([6]; water): 100 µM (≈ 26 µg/mL); solubility thermodynamic at 24 h ([7]; PBS): 72.4 µM (≈ 18.9 µg/mL); solubility thermodynamic at 24 h ([8]; simulated intestinal fluid): 58.9 µM (≈ 15.3 µg/mL); solubility thermodynamic at 24 h ([9]; simulated gastric fluid): 97.7 µM (≈ 25.4 µg/mL)
O=c1c2cc(O)c(O)cc2oc2cc(O)c([C@@H]3O[C@H](CO)[C@@H](O)[C@H](O)[C@H]3O)c(O)c12 [MANGIFERIN]	47.9 (≈ 20.2 µg/mL)	–	47.9 (≈ 20.2 µg/mL)	19.1 (≈ 8.05 µg/mL)	19.1 (≈ 8.05 µg/mL)	–
Cc1cnc(NC(=O)C2=C(O)c3ccccc3S(=O)(=O)N2C)s1 [MELOXICAM]	–	2.29 (≈ 0.805 µg/mL)	–	–	–	solubility thermodynamic at 4 h ([1]; buffer): 35.5 µM (≈ 12.5 µg/mL); solubility thermodynamic at 24 h ([6]; buffer): 11 µM (≈ 3.85 µg/mL); solubility thermodynamic at 24 h ([7]; buffer): 21.9 µM (≈ 7.69 µg/mL); solubility thermodynamic at 4 h ([3]; buffer): 11.5 µM (≈ 4.03 µg/mL); solubility thermodynamic at 24 h ([8]; simulated gi fluid): 28.8 µM (≈ 10.1 µg/mL); solubility thermodynamic at 24 h ([9]; simulated gi fluid): 0.0407 µM (≈ 0.0143 µg/mL); solubility thermodynamic at 4 h ([4]; simulated gi fluid): 22.9 µM (≈ 8.05 µg/mL); solubility thermodynamic at 4 h ([5]; simulated gi fluid): 1.41 µM (≈ 0.496 µg/mL)
COc1ccc2[nH]c([S+]([O-])Cc3ncc(C)c(OC)c3C)nc2c1 (configuration not stated) [OMEPRAZOLE]	229 (≈ 79.1 µg/mL)	145 (≈ 49.9 µg/mL)	229 (≈ 79.1 µg/mL)	57.5 (≈ 19.9 µg/mL)	437 (≈ 151 µg/mL)	–
O=C(/C=C/C=C/c1ccc2c(c1)OCO2)N1CCCCC1 [PIPERINE]	28.2 (≈ 8.04 µg/mL)	14.1 (≈ 4.03 µg/mL)	70.8 (≈ 20.2 µg/mL)	70.8 (≈ 20.2 µg/mL)	43.7 (≈ 12.5 µg/mL)	–
NC(=O)c1cnccn1 [PYRAZINAMIDE]	5370 (≈ 661 µg/mL)	–	5750 (≈ 708 µg/mL)	7940 (≈ 978 µg/mL)	5620 (≈ 692 µg/mL)	–
CC[C@H]1OC(=O)[C@H](C)[C@@H](O[C@H]2C[C@@](C)(OC)[C@@H](O)[C@H](C)O2)[C@H](C)[C@@H](O[C@@H]2O[C@H](C)C[C@H](N(C)C)[C@H]2O)[C@](C)(O)C[C@@H](C)/C(=N\OCOCCOC)[C@H](C)[C@@H](O)[C@]1(C)O [ROXITHROMYCIN]	1.2 (≈ 1.01 µg/mL)	–	0.603 (≈ 0.504 µg/mL)	0.603 (≈ 0.504 µg/mL)	0.603 (≈ 0.504 µg/mL)	–
[H]/N=C(/N)N[C@H]1[C@H](O)[C@@H](O)[C@H](O[C@@H]2O[C@@H](C)[C@](O)(C=O)[C@H]2O[C@@H]2O[C@@H](CO)[C@H](O)[C@@H](O)[C@@H]2NC)[C@@H](N/C(N)=N\[H])[C@@H]1O [STREPTOMYCIN]	0.851 (≈ 0.495 µg/mL)	–	0.851 (≈ 0.495 µg/mL)	0.851 (≈ 0.495 µg/mL)	0.851 (≈ 0.495 µg/mL)	–
CN(C/C=C/C#CC(C)(C)C)Cc1cccc2ccccc12.Cl [TERBINAFINE HYDROCHLORIDE]	0.302	–	245	1.51	245	solubility thermodynamic at 24 h ([6]; water): 229 µM; solubility thermodynamic at 24 h ([7]; PBS): 0.676 µM; solubility thermodynamic at 24 h ([8]; simulated intestinal fluid): 0.617 µM; solubility thermodynamic at 24 h ([9]; simulated gastric fluid): 155 µM
CCS(=O)(=O)CCn1c([N+](=O)[O-])cnc1C [TINIDAZOLE]	603 (≈ 149 µg/mL)	–	324 (≈ 80 µg/mL)	324 (≈ 80 µg/mL)	162 (≈ 40.1 µg/mL)	–

From ChEMBL document CHEMBL3400005, “Thermodynamic equilibrium solubility measurements in simulated fluids by 96-well plate method in early drug discovery” (Bioorg Med Chem Lett, 2015)
